Measured values reported in ChEMBL document CHEMBL1201862, “PubChem BioAssay data set” (2004).
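Briefly, cells in 96-well plates were exposed to five compound concentrations for 48 h, and endpoints were estimated by linear interpolation. Abbreviation: GI50, concentration required for 50% inhibition of growth.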 The source made the active and inactive calls. No stated cut-off is given here; in the data, active = GI50 up to about 1.1 µM and inactive = higher.

Key:
Test in all cases: DTP human tumour cell line panel, 48 h
EKVX = system: EKVX
NCI-H226 = system: NCI-H226
ACHN = system: ACHN
OVCAR-5 = system: OVCAR-5
Malme-3M = system: Malme-3M
M14 = system: M14
U-251 = system: U-251
UO-31 = system: UO-31
RXF 393 = system: RXF 393
SF-268 = system: SF-268
IGROV-1 = system: IGROV-1
SNB-19 = system: SNB-19
M19-MEL = system: M19-MEL
SK-MEL-28 = system: SK-MEL-28
RPMI-8226 = system: RPMI-8226
SK-OV-3 = system: SK-OV-3

Measured: GI50

C[N+](C)(C)C1CC([N+](C)(C)C)C2c3ccccc3C21 (configuration not stated)
inactive: EKVX > 100 µM | NCI-H226 > 100 µM | ACHN > 100 µM | OVCAR-5 > 100 µM | Malme-3M > 100 µM | M14 > 100 µM | U-251 > 100 µM | UO-31 > 100 µM | RXF 393 > 100 µM | SF-268 > 100 µM | IGROV-1 > 100 µM | SNB-19 > 100 µM | M19-MEL > 100 µM | SK-MEL-28 > 100 µM | RPMI-8226 > 100 µM | SK-OV-3 > 100 µM

O=[N+]([O-])c1cc(/C=N/NS(=O)(=O)c2ccc(F)cc2)c(O)c([N+](=O)[O-])c1
inactive: EKVX > 100 µM | ACHN 40.5 µM | OVCAR-5 > 100 µM | Malme-3M 63.1 µM | M14 22.9 µM | U-251 23.8 µM | UO-31 > 100 µM | RXF 393 36.6 µM | SF-268 40.1 µM | IGROV-1 69.5 µM | SNB-19 33.7 µM | M19-MEL 49.8 µM | SK-MEL-28 82.8 µM | RPMI-8226 27.7 µM | SK-OV-3 30.1 µM

CN(C(=O)c1ccco1)C(=S)N1CCN(c2ccccc2)CC1
inactive: NCI-H226 71.3 µM | ACHN > 100 µM | OVCAR-5 > 100 µM | Malme-3M > 100 µM | M14 > 100 µM | U-251 > 100 µM | UO-31 > 100 µM | RXF 393 > 100 µM | SF-268 > 100 µM | IGROV-1 > 100 µM | SNB-19 > 100 µM | M19-MEL > 100 µM | SK-MEL-28 > 100 µM | RPMI-8226 > 100 µM | SK-OV-3 > 100 µM

COc1ccc(NC(=O)CC(=O)N/N=C(\C)c2cc3ccccc3oc2=O)cc1
inactive: EKVX > 100 µM | NCI-H226 > 100 µM | ACHN > 100 µM | Malme-3M > 100 µM | M14 > 100 µM | U-251 > 100 µM | UO-31 > 100 µM | RXF 393 > 100 µM | IGROV-1 > 100 µM | SNB-19 > 100 µM | M19-MEL > 100 µM | SK-MEL-28 > 100 µM | RPMI-8226 > 100 µM | SK-OV-3 > 100 µM

O=c1c2ccccc2nc(-c2ccccc2Cl)n1NC1OC(CO)C(O)C(O)C1O (configuration not stated)
inactive: EKVX > 100 µM | NCI-H226 > 100 µM | ACHN > 100 µM | OVCAR-5 > 100 µM | Malme-3M > 100 µM | M14 > 100 µM | U-251 > 100 µM | UO-31 > 100 µM | SF-268 > 100 µM | IGROV-1 > 100 µM | SNB-19 > 100 µM | M19-MEL > 100 µM | SK-MEL-28 > 100 µM | RPMI-8226 > 100 µM | SK-OV-3 > 100 µM

NC(=O)c1nc(-c2ccc(Cl)c(Cl)c2)nc2ccccc12
inactive: EKVX > 41.6 µM | NCI-H226 18 µM | ACHN > 20.8 µM | OVCAR-5 > 100 µM | Malme-3M 4.92 µM | M14 > 100 µM | U-251 > 28 µM | RXF 393 12.5 µM | SF-268 19.1 µM | IGROV-1 > 100 µM | SNB-19 17.8 µM | M19-MEL > 38.1 µM | RPMI-8226 > 21.1 µM | SK-OV-3 12.1 µM

O=C(O)CSc1nnc(-c2ccccc2O)[nH]1
inactive: EKVX > 100 µM | NCI-H226 > 100 µM | ACHN > 100 µM | OVCAR-5 > 100 µM | Malme-3M > 100 µM | M14 > 100 µM | U-251 > 100 µM | UO-31 > 100 µM | RXF 393 > 100 µM | SF-268 > 100 µM | IGROV-1 > 100 µM | SNB-19 > 100 µM | M19-MEL > 100 µM | SK-MEL-28 > 100 µM | RPMI-8226 > 100 µM

OC12CCC3(OC4CCCCO4)c4ccccc4C3C1c1ccccc12 (configuration not stated)
inactive: EKVX > 100 µM | NCI-H226 > 100 µM | ACHN 41.7 µM | Malme-3M > 100 µM | M14 67.6 µM | U-251 53.8 µM | UO-31 59.6 µM | RXF 393 44.6 µM | SF-268 65.9 µM | SNB-19 61.9 µM | M19-MEL 90.4 µM | SK-MEL-28 76 µM | RPMI-8226 36 µM | SK-OV-3 > 100 µM

CC1=NN(C(=O)Nc2ccccc2)C(=O)C2CCC(=O)N12 (configuration not stated)
inactive: EKVX > 100 µM | ACHN > 100 µM | M14 > 100 µM | U-251 > 100 µM | UO-31 > 100 µM | RXF 393 > 100 µM | SF-268 > 100 µM | IGROV-1 > 100 µM | SNB-19 > 100 µM | M19-MEL > 100 µM | SK-MEL-28 > 100 µM | RPMI-8226 > 100 µM | SK-OV-3 > 100 µM

CN(C)/N=N/c1cccc(C(N)=O)c1
inactive: EKVX > 100 µM | NCI-H226 > 100 µM | ACHN > 100 µM | Malme-3M > 100 µM | M14 > 100 µM | U-251 > 100 µM | UO-31 > 100 µM | RXF 393 > 100 µM | SF-268 > 100 µM | IGROV-1 > 100 µM | SNB-19 > 100 µM | M19-MEL > 100 µM | SK-MEL-28 > 100 µM | RPMI-8226 > 100 µM | SK-OV-3 > 100 µM

Cn1cnc([N+](=O)[O-])c1Sc1nnnn1C
inactive: EKVX 18.3 µM | NCI-H226 44.7 µM | ACHN 16.2 µM | OVCAR-5 23.9 µM | Malme-3M 13.2 µM | M14 14.8 µM | U-251 18 µM | UO-31 15.3 µM | SF-268 21.5 µM | IGROV-1 19.5 µM | SNB-19 > 100 µM | M19-MEL 15.7 µM | SK-MEL-28 14.3 µM | RPMI-8226 23 µM | SK-OV-3 > 100 µM

CN(/N=C\c1ccnc2ccccc12)c1ccccc1
inactive: EKVX 9.12 µM | ACHN 31 µM | OVCAR-5 16.8 µM | Malme-3M 23.8 µM | M14 18.9 µM | U-251 25.8 µM | UO-31 25.1 µM | RXF 393 30.2 µM | SF-268 56.1 µM | IGROV-1 45.5 µM | SNB-19 29.2 µM | M19-MEL 26.1 µM | SK-MEL-28 29.8 µM | RPMI-8226 > 100 µM | SK-OV-3 31.2 µM

Cc1nc2sccn2c1C(=O)NN
inactive: EKVX > 100 µM | NCI-H226 > 100 µM | ACHN > 100 µM | OVCAR-5 > 100 µM | Malme-3M > 100 µM | U-251 > 100 µM | RXF 393 > 100 µM | SF-268 > 100 µM | IGROV-1 > 100 µM | SNB-19 > 100 µM | M19-MEL > 100 µM | SK-MEL-28 > 100 µM | RPMI-8226 > 100 µM | SK-OV-3 > 100 µM

c1ccc(SC(Sc2ccccc2)=C2CCC2)cc1
inactive: EKVX > 100 µM | ACHN > 100 µM | M14 > 100 µM | U-251 > 100 µM | UO-31 > 100 µM | RXF 393 > 100 µM | SF-268 > 100 µM | SNB-19 > 100 µM | M19-MEL > 100 µM | SK-MEL-28 > 100 µM | RPMI-8226 > 100 µM | SK-OV-3 > 100 µM
